What was measured:
[1] = DPPH radical scavenging activity (Blois method); assay type: biochemical; settings: reacted 10 min, absorbance at 517 nm
Method: (§1) The antioxidative activity of the novel compound obtained through the extraction and purification process is evaluated by measuring its radical scavenging activity against 1,1-diphenyl-2-picrylhydrazyl (DPPH), which has free radicals attached thereto, according to the Blois method. A thermal stability of the compound of interest can be evaluated by measuring its antioxidative activity at plural temperature points.
(§2) Dicaval A and Dicaval B obtained in Example 3 were measured for antioxidative activity according to the Blois method. For this, an examination was made of the radical scavenging activity of the two compounds against 1,1-diphenyl-2-picrylhydrazyl (DPPH) to which free radicals were attached. First, 20 mg of DPPH was dissolved in 150 ml of ethanol to prepare a DPPH solution. To 600 μl of the DPPH solution was added with 250 μl of dimethylsulfoxide (DMSO), diluted with an appropriate amount of ethanol and shaken for 10 seconds, after which this control was adjusted, in absorbance at 517 nm, from 0.94 to 0.97. To 1 ml of the DPPH solution which was adjusted from 0.94 to 0.97 likewise, each of the samples (μg to mg) was added and then, reacted for 10 min, followed by measuring the absorbance of the solution. The antioxidative activity of each of the samples was determined by the DPPH radical scavenging activity which was represented by a reduced absorbance compared with that of the control.
The antioxidative activity was compared between the conventional antioxidants and the compounds of the invention and the results are given in Table 1, below.

[2] = Thermal stability: antioxidative activity after heating for 1 hour; assay type: physicochemical
Method: as §1, §2
50 μg of each of Dicaval A and Dicaval B obtained in Example 3 was heated at 40° C., 60° C., 80° C., and 100° C. for 1 hour to measure antioxidative activity.

[3] = 50 μg heated at 40° C. for 1 hour
[4] = 50 μg heated at 60° C. for 1 hour
[5] = 50 μg heated at 80° C. for 1 hour
[6] = 50 μg heated at 100° C. for 1 hour

## O=C1O[C@H]([C@@H](O)CO)C(O)=C1O [Ascorbic acid, reference compound]
[1]; sample amount 10 μg
  antioxidative activity (DPPH radical scavenging activity): 100%
[1]; sample amount 20 μg
  antioxidative activity (DPPH radical scavenging activity): 100%
[1]; sample amount 100 μg
  antioxidative activity (DPPH radical scavenging activity): 100%

## Oc1cc(O)c(Oc2c(O)cc(Oc3cc4oc5c(O)c(Oc6cc(O)c(Oc7c(O)cc(O)cc7O)c(O)c6)c(O)cc5c4cc3O)cc2O)c(O)c1 [Dicaval A]
[1]; sample amount 10 μg
  antioxidative activity (DPPH radical scavenging activity): 100%
[1]; sample amount 20 μg
  antioxidative activity (DPPH radical scavenging activity): 100%
[1]; sample amount 100 μg
  antioxidative activity (DPPH radical scavenging activity): 100%
[2]; [3]
  Antioxidativity (Absorb. change): 0.87
  Thermal stability (Notes): Stable
[2]; [4]
  Antioxidativity (Absorb. change): 0.89
  Thermal stability (Notes): Stable
[2]; [5]
  Antioxidativity (Absorb. change): 0.88
  Thermal stability (Notes): Stable
[2]; [6]
  Antioxidativity (Absorb. change): 0.90
  Thermal stability (Notes): Stable

## Oc1cc(O)c(Oc2c(O)cc(Oc3c(O)cc4c(oc5c(O)c(Oc6cc(O)c(Oc7c(O)cc(O)cc7O)c(O)c6)c(O)cc54)c3O)cc2O)c(O)c1 [Dicaval B]
[1]; sample amount 10 μg
  antioxidative activity (DPPH radical scavenging activity): 100%
[1]; sample amount 20 μg
  antioxidative activity (DPPH radical scavenging activity): 100%
[1]; sample amount 100 μg
  antioxidative activity (DPPH radical scavenging activity): 100%
[2]; [3]
  Antioxidativity (Absorb. change): 0.88
  Thermal stability (Notes): Stable
[2]; [4]
  Antioxidativity (Absorb. change): 0.88
  Thermal stability (Notes): Stable
[2]; [5]
  Antioxidativity (Absorb. change): 0.87
  Thermal stability (Notes): Stable
[2]; [6]
  Antioxidativity (Absorb. change): 0.89
  Thermal stability (Notes): Stable

— patent US6774145B1, “Material separated from Ecklonia cava, method for extracting and purifying the same, and use thereof as antioxidants” (Ventree Co., Ltd, priority 2000, dated 2004)
